Results from patent publication US10654848B1, “Neutrophil inflammation inhibitor and uses thereof” (Chang Gung University of Science and Technology, priority 2018, dated 2020).
Structures can show the parent of a compound that is named as a salt.

Experiments:
[1] = tested on: human neutrophils; test: Elastase release in fMLF/CB-activated human neutrophils (MeO-Suc-Ala-Ala-Pro-Val-p-nitroanilide substrate); assay type: cell-based; conditions: Neutrophil, neutrophils in response to fMLF, Table 2, read-out: IC50 for suppressing elastase release
Description: (§1) Human neutrophils were obtained in lipopolysaccharide-free conditions by means of dextran sedimentation and Ficoll centrifugation.
Methoxysuccinyl-Ala-Ala-Pro-Val-p-nitroanilide was employed as the elastase substrate for the determination of elastase release. Briefly, after supplementation with Methoxysuccinyl-Ala-Ala-Pro-Val-p-nitroanilide (100 μM), neutrophils (6×10^5/mL) were equilibrated at 37° C. for 2 min and incubated with a candidate compound at various concentrations for 5 min. Cells were then activated with fMLF (0.1 μM) for 10 min in the pre-process of CB (0.5 μg/mL) for 3 min, and changes in absorbance at 405 nm were continuously monitored to evaluate elastase release. Results are expressed as the percentage of elastase release in the drug-free control group, DMSO.

[2] = tested on: BALB/c mice; test: Liver and kidney function (ALT, AST, BUN, creatinine) in blood of imiquimod-induced mice; assay type: in vivo, mouse; conditions: blood samples, 20 mg/kg intraperitoneal, alone or with IMQ, 7 days; FIG. 3 (n=3)
Description: In this example, the effect of HKI-4971 (or compound 13) on the development of psoriasis was investigated using the well-established psoriasis animal model, in which imiquimod (IMQ) was used to induce psoriasis-like skin inflammation. Briefly, BALB/c mice are pre-treated by intraperitoneal injection of HKI-4971 (20 mg/kg) for 30 min before 5% IMQ cream was topically administered onto the back of the mice every day for 7 days. Then, skin samples taken from these animals were subjected to microscopy examination and immunohistochemistry staining, while blood samples were subjected to analysis for liver and kidney functions. Results are depicted in FIGS. 1 to 3.
Blood samples taken from IMQ- or IMQ+HKI-4971 treated animals were analyzed for the levels of alanine aminotransferase and aspartate transaminase, which were used as indicators for assessing liver function; and the levels of blood […] nitrogen (BUN) and creatinine (CRE), which were used as indicators for assessing the kidney function. Results are illustrated in FIG. 3.

[3] = tested on: BALB/c mice; test: Imiquimod-induced psoriasis-like skin inflammation in mice; assay type: in vivo, mouse; conditions: 20 mg/kg intraperitoneal, 30 min before 5% IMQ cream, daily for 7 days
Description: (§2) Male BALB/c mice aged 7-8 weeks were purchased from BioLASCO (Taipei, Taiwan) and maintained in a room with 12 hr light/dark cycles. Standard laboratory chow and water were available ad libitum. All animal experimental procedures were performed in accordance with guidelines and approved by the Institutional Animal Care and Use Committee of Chang Gung University.
Male BALB/c mice aged 7-8 weeks were used for the development of the imiquimod-induced psoriatic-like plaque model. The dorsal skin of the mice were shaved and received a daily topical dose of 62.5 mg of 5% imiquimod (IMQ) cream (Aldara, MEDA Pharma, Sweden) with or without a test compound (e.g., HKI-4971) treatment by intraperitoneal injection for 7 consecutive days.
Tissue samples were fixed in 10% neutral buffered formalin and embedding in paraffin blocks. Sections of the samples were prepared at 5 μm thickness and stained with hematoxylin and eosin (H&E). For immunohistochemistry staining, the sections were incubated with primary antibodies against Ly6g, MPO, and ki67 then the secondary antibody was applied for the detection of the primary antibody according to the manufacturer's instructions of the SuperPicture Polymer Detection Kit (Thermo Fisher, USA). Finally, the section slides were subsequently stained with DAB chromogen and counterstained with hematoxylin. […]

[4] = tested on: BALB/c mice; test: LPS-induced acute lung injury (ALI) model in mice; assay type: in vivo, mouse; conditions: 20 mg/Kg intravenous 1 hr before intratracheal LPS, 5 hrs
Description: as §2
Mice were pre-treated with a candidate compound (e.g., HKI-4971), which was dissolved in 50 μl saline solution containing 10% DMSO and 20% Kolliphor EL (Sigma-Aldrich, USA), by intravenous injection. […]
Lung tissues were homogenized in PBS (50 Mm, pH 6.0) containing 0.5% (w/v) hexadecyltrimethylammonium bromide (HETAB) (Sigma-Aldrich, USA) by using the MagNA Lyser Instrument (Roche, Germany), and was further centrifuged at 12,000×g for 20 min at 4° C. to remove the insoluble material. The peroxidase activity was measured as the oxidation of o-Dianisidine dihydrochloride (Sigma-Aldrich, USA). […] The absorption was determined spectrophotometrically at 405 nm. […]
In this example, the Gram-negative bacterial endotoxin LPS induced ALI in mice was employed to mimic ARDS in human, and the effect of HKI-4971 was evaluated. […]

[5] = tested on: human neutrophils; test: Superoxide anion (O2•−) generation in fMLF/CB-activated human neutrophils (SOD-inhibitable ferricytochrome c reduction); assay type: cell-based; conditions: at 10 μM concentration; FMLP/CB-induced human neutrophils; mean ± S.E.M. (n = 3-5)
Description: as §1
O2^•− production was determined based on the SOD-inhibitable reduction of ferricytochrome c. Briefly, neutrophils (6×10^5/mL) were treated with a candidate compound at 37° C. at various concentrations (0.001 to 10 μM) for 5 min after being supplementing with 0.5 mg/mL ferricytochrome c and 1 mM Ca^2+. Cells were then activated with fMLF (0.1 μM) for 10 min in the pre-process of cytochalasin B (CB, 1 μg/mL) for 3 min. Changes in absorbance with the reduction of ferricytochrome c at 550 nm were continuously monitored in a double-beam, six-cell positioner spectrophotometer with constant stirring (Hitachi U-3010, Tokyo, Japan). Calculations were based on the differences in the reactions with and without SOD (100 U ml^−1) divided by the extinction coefficient for the reduction of ferricytochrome c (E=21.1 mM^−1/10 mm).

Row | Structure (SMILES) | melting point [°C] | other results
1 | COc1cc(Nc2nc3ccccc3c3onc(N)c23)cc(OC)c1OC (as salt: salt) [Compound 24, 4-(3,4,5-Trimethoxyanilino)isoxazolo[4,5-c]quinolin-3-amine] | 264 to 266 | –
2 | CSc1ccc(Nc2nc3ccccc3c3onc(N)c23)cc1 (as salt: salt) [Compound 25, 4-(4-Methylthioanilino)isoxazolo[4,5-c]quinolin-3-amine] | 246 to 247 | –
3 | CC(=O)c1cccc(Nc2nc3ccccc3c3onc(N)c23)c1 (as salt: salt) [Compound 26, 4-(3-Acetoylanilino)isoxazolo[4,5-c]quinolin-3-amine] | 249 to 250 | –
4 | CC(=O)c1ccc(Nc2nc3ccccc3c3onc(N)c23)cc1 (as salt: salt) [Compound 27, 4-(4-Acetoylanilino)isoxazolo[4,5-c]quinolin-3-amine] | 255 to 257 | –
5 | Nc1noc2c1c(Nc1ccc(O)cc1)nc1ccccc12 (as salt: salt) [Compound 29, 4-(4-Hydroxyanilino)isoxazolo[4,5-c]quinolin-3-amine] | 236 to 237 | –
6 | Nc1noc2c1c(Nc1ccc(C(F)(F)F)cc1)nc1ccccc12 (as salt: salt) [Compound 30, 4-(4-Trifluoromethylanilino)isoxazolo[4,5-c]quinolin-3-amine] | 227 to 229 | –
7 | Nc1noc2c1c(Nc1ccc(C(=O)O)cc1)nc1ccccc12 (as salt: salt) [Compound 31, 4-[(3-aminoisoxazolo[4,5-c]quinolin-4-yl)amino]benzoic acid] | 308 to 310 | –
8 | Nc1noc2c1c(Nc1ccc(Cl)cc1)nc1ccccc12 (as salt: salt) [Compound 32, 4-(4-Chloroanilino)isoxazolo[4,5-c]quinolin-3-amine] | 268 to 269 | –
9 | Cn1nc(N)c2c(Nc3ccc(O)cc3)nc3ccccc3c21 [Compound 13, 4-(4-Hydroxyanilino)-1-methyl-1H-pyrazolo[4,3-c]quinolin-3-amine] | – | IC50 [1]: 32 ± 17 nM; Liver function (alanine aminotransferase, aspartate transaminase) and kidney function (BUN, creatinine) [2]: did not result in significant damage; Severity or progression of IMQ-induced psoriasis ([3]; FIG. 1): reduce the severity or progression; Immunostaining of skin: markers for cell proliferation (ki-67) and for neutrophils (Ly6g and MPO) ([3]; FIG. 2): reduced; MPO activity in lung tissues ([4]; FIG. 4(A) (n=3)): suppressed; LPS-induced neutrophil infiltration and lung injury (H&E, Ly6g and MPO staining of lung sections) ([4]; FIG. 4(B)): significantly alleviated
10 | CSc1ccc(Nc2nc3ccccc3c3onc(N)c23)cc1 [Compound 25, 4-(4-Methylthioanilino)isoxazolo[4,5-c]quinolin-3-amine] | – | Superoxide Anion Inhibition % [5]: enhanced
11 | Nc1noc2c1c(Nc1ccc(C(F)(F)F)cc1)nc1ccccc12 [Compound 30, 4-(4-Trifluoromethylanilino)isoxazolo[4,5-c]quinolin-3-amine] | – | Superoxide Anion Inhibition % [5]: enhanced
12 | Cc1ccc(Nc2nc3ccccc3c3onc(N)c23)cc1 [Compound 33, 4-(4-Methylanilino)isoxazolo[4,5-c]quinolin-3-amine] | – | Superoxide Anion Inhibition % [5]: enhanced

Further lines, with some results ahead:

Row | melting point [°C] | Structure (SMILES) | other results
13 | 257 to 259 | COc1ccc(Nc2nc3ccccc3c3onc(N)c23)cc1 (as salt: salt) [Compound 23, 4-(4-Methoxyanilino)isoxazolo[4,5-c]quinolin-3-amine] | –
14 | 240 to 241 | Nc1noc2c1c(Nc1ccccc1O)nc1ccccc12 (as salt: salt) [Compound 28, 4-(2-Hydroxyanilino)isoxazolo[4,5-c]quinolin-3-amine] | –
15 | 173 to 175 | Cc1ccc(Nc2nc3ccccc3c3onc(N)c23)cc1 (as salt: salt) [Compound 33, 4-(4-Methylanilino)isoxazolo[4,5-c]quinolin-3-amine] | –
16 | 229 to 230 | COc1ccccc1Nc1nc2ccccc2c2c1c(N)nn2C [Compound 5, 4-(2-Methoxyanilino)-1-methyl-1H-pyrazolo[4,3-c]quinolin-3-amine] | –
17 | 272 to 274 | CC(=O)c1ccc(Nc2nc3ccccc3c3c2c(N)nn3C)cc1 [Compound 10, 4-(4-Acetoylanilino)-1-methyl-1H-pyrazolo[4,3-c]quinolin-3-amine] | –
